Results on four compounds are retold here after patent publication US8227450B2, “Lysine-based prodrugs of aspartyl protease inhibitors and processes for their preparation” (priority 2005, dated 2012).

The data set in a line: Bioavailability: plasma concentration after oral administration to rats. It is filed as in vivo, male Sprague-Dawley rats. The settings on record: for AUC: rat plasma, 3 rats; for Presence of the unchanged prodrug in the blood samples: 50 mg/kg po as aqueous solution (PBS), HPLC-MS; for Presence of the unchanged prodrug in the blood samples / Delivery of parent drug (PL-100 / PL-337) compared to non-aqueous formulations of the parent drug: rat; for Delivery of parent drug (PL-100 / PL-337) compared to non-aqueous formulations of the parent drug: aqueous dosing, 50 mg/kg po. Here is the method: To assess the extent of in vivo cleavage of the phosphate group from the putative compounds, PL-100, PL-462 (based on PL-100), PL-337 and PL-515 (based on PL-337) compounds were administered per os (po) (50 mg/kg) to male Sprague-Dawley rats and their plasma concentration measured at different time intervals post-administration. All test articles (PL-100, PL-462, PL-337 and PL-515) were prepared in different vehicle at the final concentration of 25 mg/mL. The vehicle composition is as follows: (1) 20% ethanol; 50% propylene glycol; 0.05% w/v Tween 20 and water (Mix); (2) PBS buffer (PBS). Test articles were administered to male Sprague-Dawley rats at a single oral dose of 50 mg/kg. Each article was tested in three rats. Blood samples (0.2-0.3 mL) were collected at the post-dose time of 10, 20, 40, 60, 120, 180 and 360 minutes. The harvested blood was centrifuged to isolate plasma. The resulting plasma was separated and stored at −70° C. Plasma samples together with standards and quality control samples were treated to precipitate proteins, then analyzed by HPLC-MS, for the presence of PL-462, PL-100, PL-515 and PL-337.

Where [1] appears, read: parent drug dosed 50 mg/Kg po in Mix vehicle (20% ethanol; 50% propylene glycol; 0.05% w/v Tween 20 and water).
Where [2] appears, read: prodrug dosed 50 mg/Kg po in PBS vehicle, parent drug detected (PL-100 or PL-337).

Structures are written as SMILES.

For `COC(=O)N[C@H](C(=O)NCCCC[C@@H](CO)N(CC(C)C)S(=O)(=O)c1ccc(N)cc1)C(c1ccccc1)c1ccccc1` [PL-100, (1S,5S)-(1-{5-[(4-amino-benzenesulfonyl)-isobutyl-amino]-6-hydroxy-hexylcarbamoyl}-2,2-diphenyl-ethyl)-carbamic acid methyl ester], the AUC under setting [1] is 0.675 ± 0.171 μg/hr * ml.

With `COC(=O)N[C@H](C(=O)NCCCC[C@@H](CO)N(CC(C)C)S(=O)(=O)c1ccc(N)c(F)c1)C(c1ccccc1)c1ccccc1` [PL-337, (1-{5-[(4-amino-3-fluoro-benzenesulfonyl)-isobutyl-amino]-6-hydroxy-hexylcarbamoyl}-2,2-diphenyl-ethyl)-carbamic acid methyl ester], the AUC under setting [1] worked out at 1.180 ± 0.196 μg/hr * ml.

For the compound `COC(=O)N[C@H](C(=O)NCCCC[C@@H](COP(=O)([O-])[O-])N(CC(C)C)S(=O)(=O)c1ccc(N)cc1)C(c1ccccc1)c1ccccc1.[Na+].[Na+]` [PL-462, (1S,5S)-(1-{5-[(4-amino-benzenesulfonyl)-isobutyl-amino]-6-phosphonooxy-hexylcarbamoyl}-2,2-diphenyl-ethyl)-carbamic acid methyl ester sodium salt], the “Presence of the unchanged prodrug in the blood samples” value is “None of the PL-462 and PL-515 compounds, delivered as aqueous solutions, are detected”; the “Delivery of parent drug (PL-100 / PL-337) compared to non-aqueous formulations of the parent drug” value is “equivalent to slightly superior”. Further, the AUC under setting [2] came out at 0.816 ± 0.295 μg/hr * ml.

Turning to `COC(=O)N[C@H](C(=O)NCCCC[C@@H](COP(=O)(O)O)N(CC(C)C)S(=O)(=O)c1ccc(N)c(F)c1)C(c1ccccc1)c1ccccc1` [PL-515, (1S,5S)-(1-{5-[(4-amino-3-fluoro-benzenesulfonyl)-isobutyl-amino]-6-phosphonooxy-hexylcarbamoyl}-2,2-diphenyl-ethyl)-carbamic acid methyl ester], the “Presence of the unchanged prodrug in the blood samples” value is “None of the PL-462 and PL-515 compounds, delivered as aqueous solutions, are detected”; the “Delivery of parent drug (PL-100 / PL-337) compared to non-aqueous formulations of the parent drug” value was “equivalent to slightly superior”. In addition, under setting [2], the AUC is given as 1.075 ± 0.625 μg/hr * ml.
